What all share (type): cell-based
Experiment [1] deals with H4IIE cells. The experiment is described as follows: Sensitivity assessment: ERK phosphorylation, H4IIE cells, Western blotting. The following applies: insulin for 30 minutes, read-out: Approximate EC50 values, ERK phosphorylation. The procedure:
(§1) For signalling, cells were treated with vehicle or increasing doses of insulin for 30 minutes. Cells were lysed in appropriate buffers and phosphorylation of the insulin receptor, Erk, Akt or Foxo was determined by Western blotting or ELISA, as specified. For mitogenicity, H4IIE cells were incubated with vehicle or increased doses of insulin and cellular growth was measured by detection of thymidine incorporation. […] Uptake and conversion of glucose into lipids were measured after 2 hours by extracting lipids into Microscint-e and measuring radioactivity using a top counter.
(§2) For all methods: to determine EC50 values, data were fitted to a nonlinear 4 parameter regression curve using Graphpad Prism software.

The next experiment deals with primary rat adipocytes. The experiment is described as follows: Rat free fat cell lipogenesis. The following applies: Isolated primary rat adipocytes; H3 labelled glucose; 2 hours; read-out: Approximate EC50 values, Rat Free Fat Cell lipogenesis. The procedure: as §1, §2
Experiment [2] deals with H4IIE cells. The experiment is described as follows: Mitogenicity (thymidine incorporation), H4IIE cells. Particulars: radioactively labelled thymidine, read-out: Approximate EC50 values, Mitogenecity (thymidine incorporation). As for the experimental part:
as §1, §2

On to human insulin, for which the EC50 in the experiment with H4IIE cells [1] is ~2.3 nM; in the experiment with primary rat adipocytes, ~0.02 nM; in the experiment on H4IIE cells [2] it was ~1 nM.

Source of the values: patent publication US10914728B2, “Bioassay for insulin formulations” (priority 2016, dated 2021).
